The source of these data is patent US6548472B1, “Liquid cleaning compositions comprising 2-bromo-2-nitro-1,3 propanediol” (Colgate-Palmolive Co., priority 2001, dated 2003).

The assay has as its system mixture of bacteria. Put plainly: D-value method test (rapid preservation screening, bacteria growth detection time by conductometry). It is filed as cell-based. The note with it: FIG. 1; sodium gluconate (formula B) compared with Na4EDTA (formula A, reference). The text has this:
This D-value method test is used for rapid screening. It compares the new product to a reference which gives satisfactory result in real life conditions and which must have a formula composition as close as possible to the tested product (in this example EDTA has been replaced by sodium gluconate). The tested product and the reference are inoculated by a mixture of bacteria. Once they have been inoculated the bacteria slowly disappear due to the beneficial influence of the preservative system. The longer the contact time, the lower the residual bacteria number. The better the preservation system, the lower the residual bacteria number at a given time. The inocculated products are then sampled at different times and the samples are diluted by a nutriant which helps bacteria proliferation. The time needed to detect bacteria in the diluted sample is then measured by conductometry (bacteria growth generally leads to a increase of conductivity). The longer the detection time in sample diluted by nutrient, the lower the residual alive bacteria number after sampling, the better the preservative system.

For the compound `O=C([O-])[C@H](O)[C@@H](O)[C@H](O)[C@H](O)CO.[Na+]` [sodium gluconate], the “D bacteria values: Myacid BT potentiator performance” value was “superior Myacid BT potentiator”.
